Measurements as given in patent US4699921A, “Pharmaceuticals containing prostaglandin I2” (Mitsubishi Yuka Pharmaceutical Co., Ltd., priority 1984, dated 1987).
Like-named read-outs stand apart in the source and are kept apart here.

Key:
[1] = system: Human platelet aggregation (ADP induced); test: Human platelet aggregation inhibiting effect (in vitro); assay type: cell-based; conditions: human PRP, ADP 2-10 μM, 37° C., one minute preincubation, read-out: Platelet aggregation inhibiting ratio (IC50)
Description: Platelet aggregation inhibiting effect
Bloods were sampled from healthy voluers (22-34 years old) with no administration of drug for 2 weeks or more early in the morning when they were hungry. By use of an injector filled with 5 ml of 3.8% sodium citrate solution, 50 ml of blood was sampled, immediately stirred by turning upside down and centrifuged at 200×g for 15 minutes. The supernatant was separated as the PRP (platelet rich plasma) and the residue further subjected to centrigugation at 2000×g for 15 minutes, followed by recovery of the supernatant as PPP (poor platelet plasma) which was provided for use in the experiment.
PRP (250 μ) was placed in a cuvette, 5 μof an 1% ethanol solution of the compound of the present invention or an 1% ethanol solution was added, and incubation was carried out at 37° C. for one minute. Then, an aggregation inducing agent (ADP) was added and the process of aggregation was recorded by Aggregometer (Sienco Co.). As the concentration of ADP, the minimum concentrations of ADP (2-10 μM) to give the maximum aggregation for respective platelets were employed. The inhibition percentage of platelet aggregation was calculated by the following formula:
Inhibition percentage=(A-B)/A×100
A: Maximum aggregation ratio during addition of solvent (1% ethanol solution)
B: Maximum aggregation ratio during addition of the compound of the present invention.
The platelet aggregation inhibiting effects of the compounds of the present invention are shown in terms of IC50 values in Table 6.

gastric mucosa damage = test: Antiulcer effect (1): inhibition of hydrochloric acid induced gastric mucosa damage; assay type: in vivo, male SD rat; conditions: oral, 25 μg/kg, 30 minutes before 1 ml of 0.6N hydrochloric acid
Description: Male SD-strain rats (weighing 220-255 g) were fasted for 20 hours (water was given ad libitum) and, after further abstinence from food and water for 4 hours, the compound of the present invention was administered orally, followed further by oral administration of 1 ml of 0.6N hydrochloric acid 30 minutes later. One hour after administration of hydrochloric acid, the stomach was enucleated under chloroform anesthesia. The fluid in the stomach was discharged and 7.5 ml of a 1% formalin solution was injected into the stomach to fix the gastric mucosa. Then, the stomach was dissected along the greater curvature and the length of the gastric mucosa damage was measured under a steroscopic microscope. The compound of the present invention was dissolved in 5% ethanol-95% physiological salt solution and administered at a dose of 25 μg/kg in a volume of 5 ml/kg.
The antiulcer effect of the compound of the present invention was calculated by the following formula: [formula] l: length of gastric mucosa damage in the group to which the compound of the present invention is administered;
lo: length of gastric mucosa damage in the group of non-administration of drug.

gastric acid secretion = test: Antiulcer effect (2): rat gastric acid inhibiting effect (pylorus ligature); assay type: in vivo, male Wistar rat; conditions: subcutaneous, 100 μg/kg, 4 hours after pylorus ligature; for Amount of gastric acid secreted: solvent 73.6
Description: Male wistar strain rats (weighing 250-280 g) were fasted for 18 hours subjected to peritoneotomy under ether anesthesia for ligature of pylorus, and after 4 hours under abstinence from food and water, gastric juice was sampled. The gastric juice was centrifuged at 3000 rpm for 10 minutes, and then the amount, pH and acidity of the gastric juice were measured. The acidity was measured by titration by means of an automatic titrating device (Toa Denpa Kogyo) with a 0.1N NaOH to pH 7.0 and calculating according to the following formula: [formula]
The gastric juice secretion inhibition percentage was calculated according to the following formula: [formula] A: Amount of gastric acid excreted in Control group B: Amount of gastric acid excreted in Drug group
The drugs to be tested were adminsistered subcutaneously immediately after pylorus ligature.

blood pressure = test: Hypotensive effect in anesthetized rats; assay type: in vivo, male Wistar rat; conditions: intravenous, 10 μg/kg
Description: Male wistar strain rats (weighing 240-290 g) were anesthetized by intraperitoneal administration of 50 mg/kg of sodium pentobarbital, and blood pressures were measured. The compound of the present invention was administered intravenously as a solution dissolved in 10 ethanol- 90% physiological salt solution. The hypotensive effect is expressed by the percent change of average blood pressure after intravenous administration (relative to that before administration).

right femoral artery = test: Vasodilative effect (perfusion pressure of femoral artery in anesthetized dogs); assay type: in vivo, dog; conditions: intraarterial, 100 μg/kg
Description: Female and male adult dogs were anesthetized by intraveneous administeration of 30 mg/kg of sodium pentobarbital and fixed on their back positions. The right femoral artery was perfused at constant flow with the dog's own blood by means of a peristaltic pump (Harvard Co.). The perfusion pressure was measured with an electromanometer and systemic blood pressure was measured in the other femoral artery with a pressure transducer. As an anticoagulant, 500 U/kg of heparin sodium was intravenously administered.
The compound of the present invention was dissolved in 10% ethanol-90% physiological salt solution and administered into arterial blood through a thick rubber tube provided in the perfusion circuit. The vasodilative effect of the compound of the present invention is expressed by the change ratio of perfusion pressure after administration into the artery.

Compound | IC50 ([1]; Platelet) | Gastric acid secretion Inhibition (gastric acid secretion) | Amount of gastric acid secreted (gastric acid secretion) | also measured
CC#CCC(C)[C@H](O)/C=C/[C@@H]1[C@H]2CC(C=CCCC(=O)O)=C[C@H]2C[C@H]1O (some centres unmarked) [Compound C] | 0.8 nM |  |  | 
CCCCC[C@H](O)/C=C/[C@H]1[C@H](O)CC(=O)[C@@H]1C/C=C\CCCC(=O)O [PGE2] |  |  |  | Inhibition of gastric mucosa damage (gastric mucosa damage): 61.1%
CC(C)=CCC[C@@H](C)C[C@H](O)/C=C/[C@@H]1[C@H]2CC(C=CCCC(=O)O)=C[C@H]2C[C@H]1O [Compound D] | 20 nM |  |  | 
CCCCC[C@H](O)/C=C/[C@@H]1[C@H]2CC(C=CCCC(=O)O)=C[C@H]2C[C@H]1O [Compound A] | 14 nM |  |  | 
O=C(O)CCC=CC1=C[C@H]2C[C@@H](O)[C@H](/C=C/[C@@H](O)C3CCCCC3)[C@H]2C1 [Compound E] | 5 nM |  |  | 
CCCC(C)C[C@H](O)/C=C/[C@H]1[C@H]2CC(C=CCCC(=O)O)=C[C@H]2C[C@H]1O (mixture of isomers) [Compound K, 3-(4'-carboxy-1'-butenyl)-6(S)-(3'(S)-hydroxy-5'(RS)-methyl-trans-1'-octenyl)-7(R)-hydroxy-(1S,5S)-cis-bicyclo[3.3.0]oct-2-ene] |  | 70.5% | 21.7 mEq/l | IC50 [1]: 2 nM
CC(C1CCCCC1)[C@H](O)/C=C/[C@@H]1[C@H]2CC(C=CCCC(=O)O)=C[C@H]2C[C@H]1O (some centres unmarked) [Compound L] | 300 nM | 36.8% | 46.5 mEq/l | 
O=C(O)CCC=CC1=C[C@H]2C[C@@H](O)[C@H](/C=C/[C@@H](O)C3CCCC3)[C@H]2C1 [Compound B] | 7 nM |  |  | 
CCC#CC(C)C[C@H](O)/C=C/[C@@H]1[C@H]2CC(C=CCCC(=O)O)=C[C@H]2C[C@H]1O (some centres unmarked) [Compound G] | 0.6 nM |  |  | 
O=C(O)CCCC=C1C[C@H]2C[C@@H](O)[C@H](/C=C/[C@@H](O)C3CCCC3)[C@H]2C1 [OP-41483] | 9 nM |  |  | Percent change of average blood pressure (blood pressure): -39%; Inhibition of gastric mucosa damage (gastric mucosa damage): -28.3%; Perfusion pressure change (right femoral artery): -16%
CCCCC(C)(C)[C@H](O)/C=C/[C@@H]1[C@H]2CC(C=CCCC(=O)O)=C[C@H]2C[C@H]1O [Compound J, 3-(4'-carboxy-1'-butenyl)-6(S)-(3'(S)-hydroxy-4',4'-dimethyl-trans-1'-octenyl)-7(R)-hydroxy-(1S,5S)-cis-bicyclo[3.3.0]oct-2-ene] | 200 nM | 18.1% | 60.3 mEq/l | 
CCCCCC(C)[C@H](O)/C=C/[C@@H]1[C@H]2CC(C=CCCC(=O)O)=C[C@H]2C[C@H]1O (stereo partly drawn) [Compound H, 3-(4'-carboxy-1'-butenyl)-6(S)-(3'(S)-hydroxy-4'(RS)-methyl-trans-1'-nonenyl-7(R)-hydroxy-1S,5S)-cis-bicyclo[3.3.0]oct-2-ene] | 8 nM | 89.9% | 7.4 mEq/l | 
CCC#CCC(C)[C@H](O)/C=C/[C@@H]1[C@H]2CC(C=CCCC(=O)O)=C[C@H]2C[C@H]1O (stereo partly drawn) [Compound F, 3-(4'-carboxy-1'-butenyl)-6(S)-(3'(S)-hydroxy-4'(RS)-methyl-trans-1'-nonen-6'-ynyl)-7(R)-hydroxy-(1S,5S)-cis-bicyclo[3.3.0]oct-2-ene] | 4 nM | 81.8% | 13.4 mEq/l | 
CCCCC(C)C[C@H](O)/C=C/[C@H]1[C@H]2CC(C=CCCC(=O)O)=C[C@H]2C[C@H]1O (mixture of isomers) [Compound M, 3-(4'-carboxy-1'-butenyl)-6(S)-(3'(S)-hydroxy-5'(RS)-methyl-trans-1'-nonenyl)-7(R)-hydroxy-(1S,5S)-cis-bicyclo[3.3.0]-oct-2-ene] |  | 73.5% | 19.5 mEq/l | IC50 [1]: 4 nM
O=C(O)CCC=CC1=C[C@H]2C[C@@H](O)[C@H](/C=C/[C@@H](O)CCc3ccccc3)[C@H]2C1 [Compound I, 3-(4'-carboxy-1'-butenyl)-6(S)-(3'(S)-hydroxy-5'-phenyl-trans-1'-pentenyl)-7(R)-hydroxy-(1S,5S)-cis-bicyclo[3.3.0]oct-2-ene] | 80 nM | 73.5% | 19.5 mEq/l | 
